These results are taken from US20240166626A1, “Compounds and Methods for Preventing, Treating, or Ameliorating Airway Disease” (THOMAS JEFFERSON UNIVERSITY, priority 2021, published 2024).

This experiment has as its target β1AR (Homo sapiens, UniProt P08588). As to the kind of experiment: BRET analysis of β-arrestin2 interaction with β1AR in HEK 293 cells. It is filed as cell-based. The conditions noted are these: 10 μM DFPQ, FIG. 2B. The protocol: FIGS. 2A-2C: […] Cells were read every 2 min post agonist addition. […]® ADRB2 cells (DiscoveRx) were maintained with the AssayCompleteTM Cell Culture kit (DiscoveRx catalog #92-[…]). […] HEK 293 cells stably overexpressing β2AR included 250 μg/ml G418. Cells were incubated at 37° C. in a humidified incubator with 5% CO2. […] Cells were read every three minutes for 18 minutes on a PolarStar Optima plate reader (BMG) to establish peak signal. […] Plates were incubated in the dark at room temperature for one hour. Luminescence was determined at room temperature (23-25° C.) on a PolarStar Optima plate reader (BMG). […] Screening data analysis and IC50 determination. […] Relative assay bias was calculated from the ratio of normalized cAMP and arrestin recruitment responses. […] BRET was measured using a Tecan Infinite F500 microplate reader. […] Bound [35 S]GTPγS was collected by rapid filtration on GF/B filters, washed 4 times with 4 ml of cold GTPγS wash buffer and analyzed by liquid scintillation counting. […] Immunoprecipitated proteins were separated by SDS-PAGE and analyzed by western blot using a β2AR C-terminal tail or phospho-specific antibody. […] Band intensity was measured by densitometry using ImageJ. […] Absorbance was then measured on a plate reader at 405 nm. […] Lungs were monitored for appropriate inflation. […] Images were analyzed post hoc using the ImageJ software. […] Cell-free area was quantitated using ImageJ. […]
A general note: Bioluminescence resonance energy transfer reports proximity on the nanometre scale.

Molecules are shown by their SMILES.

Chain of β1AR (P08588 whole entry): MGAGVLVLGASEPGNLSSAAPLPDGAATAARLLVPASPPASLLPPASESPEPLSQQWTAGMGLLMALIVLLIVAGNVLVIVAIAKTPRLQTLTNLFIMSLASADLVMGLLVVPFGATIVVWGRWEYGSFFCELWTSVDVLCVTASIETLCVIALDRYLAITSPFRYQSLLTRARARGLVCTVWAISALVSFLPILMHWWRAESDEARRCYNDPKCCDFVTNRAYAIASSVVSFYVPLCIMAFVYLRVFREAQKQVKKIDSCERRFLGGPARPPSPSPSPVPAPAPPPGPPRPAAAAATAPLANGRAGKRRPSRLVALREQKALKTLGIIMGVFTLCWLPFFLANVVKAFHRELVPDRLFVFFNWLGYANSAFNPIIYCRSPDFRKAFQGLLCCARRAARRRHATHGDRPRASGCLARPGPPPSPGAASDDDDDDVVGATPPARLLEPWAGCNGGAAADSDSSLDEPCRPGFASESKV

For the compound `Fc1ccc(Nc2nc(NC3CCCCC3)c3ccccc3n2)cc1F` [DFPQ, N^4-cyclohexyl-N^2-(3,4-difluorophenyl)quinazoline-2,4-diamine], the “β-arrestin2 interaction with the β1AR” value is on record as “not significantly inhibited”.
